± gives the expanded uncertainty stated by the source.
Test: xn = mol fraction of the nth substance listed
Details: 101 kPa, Liquid

CC1COC(=O)O1 (configuration not stated) [4-methyl-1,3-dioxolan-2-one] + Cc1cccc(C)c1
mass density (293.15 K, x2 = 0): 1200.25 ± 40 kg/m3 | mass density (293.15 K, x2 = 0.0576): 1173.76 ± 40 kg/m3 | mass density (293.15 K, x2 = 0.1263): 1143.64 ± 40 kg/m3 | mass density (293.15 K, x2 = 0.1735): 1123.83 ± 40 kg/m3 | mass density (293.15 K, x2 = 0.2267): 1102.36 ± 40 kg/m3 | mass density (293.15 K, x2 = 0.2867): 1079.14 ± 40 kg/m3 | mass density (293.15 K, x2 = 0.3548): 1054 ± 40 kg/m3 | mass density (293.15 K, x2 = 0.4243): 1029.6 ± 40 kg/m3 | mass density (293.15 K, x2 = 0.4671): 1015.15 ± 40 kg/m3 | mass density (293.15 K, x2 = 0.5341): 993.4 ± 40 kg/m3 | mass density (293.15 K, x2 = 0.5811): 978.7 ± 40 kg/m3 | mass density (293.15 K, x2 = 0.6532): 957.01 ± 40 kg/m3 | mass density (293.15 K, x2 = 0.7213): 937.38 ± 40 kg/m3 | mass density (293.15 K, x2 = 0.7831): 920.23 ± 40 kg/m3 | mass density (293.15 K, x2 = 0.8421): 904.39 ± 40 kg/m3 | mass density (293.15 K, x2 = 0.9212): 883.89 ± 40 kg/m3 | mass density (303.15 K, x2 = 0): 1180.56 ± 40 kg/m3 | mass density (303.15 K, x2 = 0.0476): 1159.4 ± 40 kg/m3 | mass density (303.15 K, x2 = 0.1178): 1129.53 ± 40 kg/m3 | mass density (303.15 K, x2 = 0.1822): 1103.48 ± 40 kg/m3 | mass density (303.15 K, x2 = 0.2248): 1086.93 ± 40 kg/m3 | mass density (303.15 K, x2 = 0.2978): 1059.75 ± 40 kg/m3 | mass density (303.15 K, x2 = 0.3681): 1034.91 ± 40 kg/m3 | mass density (303.15 K, x2 = 0.4348): 1012.48 ± 40 kg/m3 | mass density (303.15 K, x2 = 0.5038): 990.33 ± 40 kg/m3 | mass density (303.15 K, x2 = 0.5598): 973.11 ± 40 kg/m3 | mass density (303.15 K, x2 = 0.6139): 957.05 ± 40 kg/m3 | mass density (303.15 K, x2 = 0.6738): 939.89 ± 40 kg/m3 | mass density (303.15 K, x2 = 0.7355): 922.85 ± 40 kg/m3 | mass density (303.15 K, x2 = 0.8021): 905.11 ± 40 kg/m3 | mass density (303.15 K, x2 = 0.8837): 884.19 ± 40 kg/m3 | mass density (303.15 K, x2 = 0.9475): 868.42 ± 40 kg/m3 | mass density (313.15 K, x2 = 0): 1161.28 ± 40 kg/m3 | mass density (313.15 K, x2 = 0.0564): 1137.19 ± 40 kg/m3 | mass density (313.15 K, x2 = 0.1291): 1107.58 ± 40 kg/m3 | mass density (313.15 K, x2 = 0.1781): 1088.5 ± 40 kg/m3 | mass density (313.15 K, x2 = 0.2378): 1066.16 ± 40 kg/m3 | mass density (313.15 K, x2 = 0.3021): 1043.18 ± 40 kg/m3 | mass density (313.15 K, x2 = 0.3614): 1022.91 ± 40 kg/m3 | mass density (313.15 K, x2 = 0.4243): 1002.32 ± 40 kg/m3 | mass density (313.15 K, x2 = 0.4861): 982.96 ± 40 kg/m3 | mass density (313.15 K, x2 = 0.5349): 968.22 ± 40 kg/m3 | mass density (313.15 K, x2 = 0.5924): 951.44 ± 40 kg/m3 | mass density (313.15 K, x2 = 0.6521): 934.66 ± 40 kg/m3 | mass density (313.15 K, x2 = 0.7134): 918.04 ± 40 kg/m3 | mass density (313.15 K, x2 = 0.7634): 904.91 ± 40 kg/m3 | mass density (313.15 K, x2 = 0.8325): 887.34 ± 40 kg/m3 | mass density (313.15 K, x2 = 0.9334): 862.75 ± 40 kg/m3 | mass density (323.15 K, x2 = 0): 1142.43 ± 40 kg/m3 | mass density (323.15 K, x2 = 0.0525): 1120.74 ± 40 kg/m3 | mass density (323.15 K, x2 = 0.1203): 1093.93 ± 40 kg/m3 | mass density (323.15 K, x2 = 0.1832): 1070.24 ± 40 kg/m3 | mass density (323.15 K, x2 = 0.2498): 1046.31 ± 40 kg/m3 | mass density (323.15 K, x2 = 0.3103): 1025.54 ± 40 kg/m3 | mass density (323.15 K, x2 = 0.3667): 1006.98 ± 40 kg/m3 | mass density (323.15 K, x2 = 0.4327): 986.16 ± 40 kg/m3 | mass density (323.15 K, x2 = 0.4962): 967.01 ± 40 kg/m3 | mass density (323.15 K, x2 = 0.5587): 948.93 ± 40 kg/m3 | mass density (323.15 K, x2 = 0.6148): 933.3 ± 40 kg/m3 | mass density (323.15 K, x2 = 0.6813): 915.46 ± 40 kg/m3 | mass density (323.15 K, x2 = 0.7539): 896.75 ± 40 kg/m3 | mass density (323.15 K, x2 = 0.8013): 884.94 ± 40 kg/m3 | mass density (323.15 K, x2 = 0.8625): 870.1 ± 40 kg/m3 | mass density (323.15 K, x2 = 0.9346): 853.17 ± 40 kg/m3 | mass density (333.15 K, x2 = 0): 1123.99 ± 40 kg/m3 | mass density (333.15 K, x2 = 0.0478): 1104.87 ± 40 kg/m3 | mass density (333.15 K, x2 = 0.1249): 1075.39 ± 40 kg/m3 | mass density (333.15 K, x2 = 0.1942): 1050.25 ± 40 kg/m3 | mass density (333.15 K, x2 = 0.2571): 1028.52 ± 40 kg/m3 | mass density (333.15 K, x2 = 0.3245): 1006.29 ± 40 kg/m3 | mass density (333.15 K, x2 = 0.3878): 986.36 ± 40 kg/m3 | mass density (333.15 K, x2 = 0.4313): 973.16 ± 40 kg/m3 | mass density (333.15 K, x2 = 0.5138): 949.16 ± 40 kg/m3 | mass density (333.15 K, x2 = 0.582): 930.28 ± 40 kg/m3 | mass density (333.15 K, x2 = 0.6842): 903.43 ± 40 kg/m3 | mass density (333.15 K, x2 = 0.7323): 891.34 ± 40 kg/m3 | mass density (333.15 K, x2 = 0.7723): 881.53 ± 40 kg/m3 | mass density (333.15 K, x2 = 0.8248): 868.96 ± 40 kg/m3 | mass density (333.15 K, x2 = 0.8833): 855.34 ± 40 kg/m3 | mass density (333.15 K, x2 = 0.9429): 841.84 ± 40 kg/m3 | mass density (343.15 K, x2 = 0): 1105.98 ± 40 kg/m3 | mass density (343.15 K, x2 = 0.0634): 1081.55 ± 40 kg/m3 | mass density (343.15 K, x2 = 0.1278): 1057.84 ± 40 kg/m3 | mass density (343.15 K, x2 = 0.1798): 1039.5 ± 40 kg/m3 | mass density (343.15 K, x2 = 0.2348): 1020.82 ± 40 kg/m3 | mass density (343.15 K, x2 = 0.3013): 999.21 ± 40 kg/m3 | mass density (343.15 K, x2 = 0.3703): 977.83 ± 40 kg/m3 | mass density (343.15 K, x2 = 0.4259): 961.33 ± 40 kg/m3 | mass density (343.15 K, x2 = 0.4829): 945.05 ± 40 kg/m3 | mass density (343.15 K, x2 = 0.5329): 931.26 ± 40 kg/m3 | mass density (343.15 K, x2 = 0.5928): 915.31 ± 40 kg/m3 | mass density (343.15 K, x2 = 0.6528): 899.92 ± 40 kg/m3 | mass density (343.15 K, x2 = 0.7132): 884.96 ± 40 kg/m3 | mass density (343.15 K, x2 = 0.7829): 868.32 ± 40 kg/m3 | mass density (343.15 K, x2 = 0.8532): 852.13 ± 40 kg/m3 | mass density (343.15 K, x2 = 0.9253): 836.07 ± 40 kg/m3 | mass density (353.15 K, x2 = 0): 1088.38 ± 40 kg/m3 | mass density (353.15 K, x2 = 0.0622): 1065.11 ± 40 kg/m3 | mass density (353.15 K, x2 = 0.1199): 1044.44 ± 40 kg/m3 | mass density (353.15 K, x2 = 0.1874): 1021.32 ± 40 kg/m3 | mass density (353.15 K, x2 = 0.2401): 1004.03 ± 40 kg/m3 | mass density (353.15 K, x2 = 0.3149): 980.58 ± 40 kg/m3 | mass density (353.15 K, x2 = 0.3871): 959.07 ± 40 kg/m3 | mass density (353.15 K, x2 = 0.451): 940.91 ± 40 kg/m3 | mass density (353.15 K, x2 = 0.5249): 920.84 ± 40 kg/m3 | mass density (353.15 K, x2 = 0.5832): 905.67 ± 40 kg/m3 | mass density (353.15 K, x2 = 0.6591): 886.72 ± 40 kg/m3 | mass density (353.15 K, x2 = 0.7249): 870.97 ± 40 kg/m3 | mass density (353.15 K, x2 = 0.7719): 860.05 ± 40 kg/m3 | mass density (353.15 K, x2 = 0.8529): 841.86 ± 40 kg/m3 | mass density (353.15 K, x2 = 0.8941): 832.88 ± 40 kg/m3 | mass density (353.15 K, x2 = 0.9483): 821.31 ± 40 kg/m3
